Species: Rattus norvegicus
Experiment: DrugMatrix - Regimen: Daily Repeat
Format: toxicity, organism-based, Sprague-Dawley
Set-up: regimen Daily Repeat, gender Male, age 6-8 weeks
Conditions: in vivo, po, route oral GAVAGE, […]; for ABSOLUTE BASOPHIL / ABSOLUTE EOSINOPHIL / ABSOLUTE LYMPHOCYTE / ABSOLUTE MONOCYTE / ABSOLUTE SEGMENTED NEUTROPHIL / BASOPHIL / EOSINOPHIL / ERYTHROCYTE COUNT / HEMATOCRIT / HEMOGLOBIN / LEUKOCYTE COUNT / LYMPHOCYTE / MEAN CORPUSCULAR HEMOGLOBIN / MEAN CORPUSCULAR HEMOGLOBIN CONCENTRATION / MEAN CORPUSCULAR VOLUME / MONOCYTE / NEUTROPHIL / NUCLEATED RED BLOOD CELLS / PLATELET COUNT: tissue Blood; for ALANINE AMINOTRANSFERASE / ALBUMIN / ALKALINE PHOSPHATASE / ASPARTATE AMINOTRANSFERASE / BLOOD UREA NITROGEN / CARBON DIOXIDE / CHLORIDE / CHOLESTEROL / CREATINE PHOSPHOKINASE / CREATININE / GLUCOSE / LACTATE DEHYDROGENASE / LIPASE / PHOSPHORUS / POTASSIUM / SODIUM / TOTAL BILIRUBIN / TOTAL PROTEIN / URIC ACID: tissue Plasma
[1] = 40 mg/kg, 72 h, dose level Low, time 3 day
[2] = 40 mg/kg, 120 h, dose level Low, time 5 day
[3] = 450 mg/kg, 72 h, dose level High, time 3 day
[4] = 450 mg/kg, 120 h, dose level High, time 5 day

## CC(c1cc2ccccc2s1)N(O)C(N)=O (configuration not stated) [ZILEUTON]
[1]
  ABSOLUTE BASOPHIL: 0 CELLS/uL
  ABSOLUTE EOSINOPHIL: 103.33 CELLS/uL
  ABSOLUTE LYMPHOCYTE: 13682 CELLS/uL
  ABSOLUTE MONOCYTE: 0 CELLS/uL
  ABSOLUTE SEGMENTED NEUTROPHIL: 1348 CELLS/uL
  BASOPHIL: 0%
  EOSINOPHIL: 0.67%
  ERYTHROCYTE COUNT: 5.58 x10E6/uL
  HEMATOCRIT: 34.97%
  HEMOGLOBIN: 13.77 G/DL
  LEUKOCYTE COUNT: 15.13 x10E3/uL
  LYMPHOCYTE: 90.33%
  MEAN CORPUSCULAR HEMOGLOBIN: 24.67 pg
  MEAN CORPUSCULAR HEMOGLOBIN CONCENTRATION: 39.37 G/DL
  MEAN CORPUSCULAR VOLUME: 62.67 fL
  MONOCYTE: 0%
  NEUTROPHIL: 9%
  NUCLEATED RED BLOOD CELLS: 0 /100WBC
  PLATELET COUNT: 1217.67 x10E3/uL
  ALANINE AMINOTRANSFERASE: 75.33 u/L
  ALBUMIN: 3.93 G/DL
  ALKALINE PHOSPHATASE: 442 u/L
  ASPARTATE AMINOTRANSFERASE: 87.67 u/L
  BLOOD UREA NITROGEN: 14 mg/dL
  CARBON DIOXIDE: 32.33 mmol/L
  CHLORIDE: 100 MEQ/L
  CHOLESTEROL: 66.67 mg/dL
  CREATINE PHOSPHOKINASE: 201.33 u/L
  CREATININE: 0.14 mg/dL
  GLUCOSE: 160 mg/dL
  LACTATE DEHYDROGENASE: 148.33 u/L
  LIPASE: 10.67 u/L
  PHOSPHORUS: 10.8 mg/dL
  POTASSIUM: 6.7 MEQ/L
  SODIUM: 140.3 MEQ/L
  TOTAL BILIRUBIN: 0.17 mg/dL
  TOTAL PROTEIN: 5.37 G/DL
  URIC ACID: 1.53 mg/dL
[2]
  ABSOLUTE BASOPHIL: 0 CELLS/uL
  ABSOLUTE EOSINOPHIL: 0 CELLS/uL
  ABSOLUTE LYMPHOCYTE: 9935.67 CELLS/uL
  ABSOLUTE MONOCYTE: 247 CELLS/uL
  ABSOLUTE SEGMENTED NEUTROPHIL: 1084 CELLS/uL
  BASOPHIL: 0%
  EOSINOPHIL: 0%
  ERYTHROCYTE COUNT: 5.6 x10E6/uL
  HEMATOCRIT: 34.1%
  HEMOGLOBIN: 13.83 G/DL
  LEUKOCYTE COUNT: 11.27 x10E3/uL
  LYMPHOCYTE: 89%
  MEAN CORPUSCULAR HEMOGLOBIN: 24.77 pg
  MEAN CORPUSCULAR HEMOGLOBIN CONCENTRATION: 40.57 G/DL
  MEAN CORPUSCULAR VOLUME: 60.97 fL
  MONOCYTE: 2%
  NEUTROPHIL: 9%
  NUCLEATED RED BLOOD CELLS: 0 /100WBC
  PLATELET COUNT: 1094 x10E3/uL
  ALANINE AMINOTRANSFERASE: 62 u/L
  ALBUMIN: 4.23 G/DL
  ALKALINE PHOSPHATASE: 479.33 u/L
  ASPARTATE AMINOTRANSFERASE: 79.33 u/L
  BLOOD UREA NITROGEN: 13.67 mg/dL
  CARBON DIOXIDE: 32 mmol/L
  CHLORIDE: 100.67 MEQ/L
  CHOLESTEROL: 62 mg/dL
  CREATINE PHOSPHOKINASE: 165.33 u/L
  CREATININE: 0.2 mg/dL
  GLUCOSE: 145 mg/dL
  LACTATE DEHYDROGENASE: 111.67 u/L
  LIPASE: 11 u/L
  PHOSPHORUS: 10.6 mg/dL
  POTASSIUM: 6.47 MEQ/L
  SODIUM: 141.17 MEQ/L
  TOTAL BILIRUBIN: 0.17 mg/dL
  TOTAL PROTEIN: 5.67 G/DL
  URIC ACID: 1.47 mg/dL
[3]
  ABSOLUTE BASOPHIL: 0 CELLS/uL
  ABSOLUTE EOSINOPHIL: 0 CELLS/uL
  ABSOLUTE LYMPHOCYTE: 15031 CELLS/uL
  ABSOLUTE MONOCYTE: 0 CELLS/uL
  ABSOLUTE SEGMENTED NEUTROPHIL: 1769 CELLS/uL
  BASOPHIL: 0%
  EOSINOPHIL: 0%
  ERYTHROCYTE COUNT: 5.39 x10E6/uL
  HEMATOCRIT: 32.93%
  HEMOGLOBIN: 13.6 G/DL
  LEUKOCYTE COUNT: 16.8 x10E3/uL
  LYMPHOCYTE: 89.33%
  MEAN CORPUSCULAR HEMOGLOBIN: 25.27 pg
  MEAN CORPUSCULAR HEMOGLOBIN CONCENTRATION: 41.33 G/DL
  MEAN CORPUSCULAR VOLUME: 61.1 fL
  MONOCYTE: 0%
  NEUTROPHIL: 10.67%
  NUCLEATED RED BLOOD CELLS: 0.33 /100WBC
  PLATELET COUNT: 1249 x10E3/uL
  ALANINE AMINOTRANSFERASE: 87.67 u/L
  ALBUMIN: 3.67 G/DL
  ALKALINE PHOSPHATASE: 458 u/L
  ASPARTATE AMINOTRANSFERASE: 128 u/L
  BLOOD UREA NITROGEN: 17.67 mg/dL
  CARBON DIOXIDE: 25.33 mmol/L
  CHLORIDE: 103.67 MEQ/L
  CHOLESTEROL: 65.67 mg/dL
  CREATINE PHOSPHOKINASE: 774.33 u/L
  CREATININE: 0.18 mg/dL
  GLUCOSE: 148.33 mg/dL
  LACTATE DEHYDROGENASE: 301.67 u/L
  LIPASE: 10.67 u/L
  PHOSPHORUS: 12.57 mg/dL
  POTASSIUM: 5.93 MEQ/L
  SODIUM: 142.9 MEQ/L
  TOTAL BILIRUBIN: 0.2 mg/dL
  TOTAL PROTEIN: 5.13 G/DL
  URIC ACID: 1.47 mg/dL
[4]
  ABSOLUTE BASOPHIL: 0 CELLS/uL
  ABSOLUTE EOSINOPHIL: 45 CELLS/uL
  ABSOLUTE LYMPHOCYTE: 16299.33 CELLS/uL
  ABSOLUTE MONOCYTE: 207.67 CELLS/uL
  ABSOLUTE SEGMENTED NEUTROPHIL: 1114.67 CELLS/uL
  BASOPHIL: 0%
  EOSINOPHIL: 0.33%
  ERYTHROCYTE COUNT: 5.62 x10E6/uL
  HEMATOCRIT: 34.17%
  HEMOGLOBIN: 13.87 G/DL
  LEUKOCYTE COUNT: 17.67 x10E3/uL
  LYMPHOCYTE: 92.33%
  MEAN CORPUSCULAR HEMOGLOBIN: 24.73 pg
  MEAN CORPUSCULAR HEMOGLOBIN CONCENTRATION: 40.6 G/DL
  MEAN CORPUSCULAR VOLUME: 60.87 fL
  MONOCYTE: 1%
  NEUTROPHIL: 6.33%
  NUCLEATED RED BLOOD CELLS: 0 /100WBC
  PLATELET COUNT: 1205.33 x10E3/uL
  ALANINE AMINOTRANSFERASE: 64.33 u/L
  ALBUMIN: 4.1 G/DL
  ALKALINE PHOSPHATASE: 388 u/L
  ASPARTATE AMINOTRANSFERASE: 79.33 u/L
  BLOOD UREA NITROGEN: 16 mg/dL
  CARBON DIOXIDE: 37.67 mmol/L
  CHLORIDE: 99.33 MEQ/L
  CHOLESTEROL: 79 mg/dL
  CREATINE PHOSPHOKINASE: 125 u/L
  CREATININE: 0.15 mg/dL
  GLUCOSE: 142 mg/dL
  LACTATE DEHYDROGENASE: 75 u/L
  LIPASE: 10.33 u/L
  PHOSPHORUS: 10.97 mg/dL
  POTASSIUM: 6.65 MEQ/L
  SODIUM: 142.6 MEQ/L
  TOTAL BILIRUBIN: 0.2 mg/dL
  TOTAL PROTEIN: 5.8 G/DL
  URIC ACID: 1.7 mg/dL

Source: ChEMBL document CHEMBL3885881, “DrugMatrix”
